Assay results taken from PubChem BioAssay AID1963858 (Molecular Pharmacology Branch, DTP, NCI, 2024).
Calls of active or inactive are those of the source. The calls were made as follows: active = viability on the fitted dose curve at most 10% of control; inactive = the rest.

System: HOP-62 multicell spheroids with HUVEC/MSC, viability
Test: Anticancer human tumor HOP-62 cell line growth inhibition [KRAS2];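 as to IC50: viability read after a week of compound exposure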;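 as to viability, T/C: viability read after a week of compound exposure; 100% = DMSO vehicle-treated spheroids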
Conditions: for IC50: curve of first compound; for viability, T/C: stronger effect = lower value
How it was run: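 KRAS-mutant tumor cells were grown as spheroids with HUVEC endothelial cells and human MSCs as stroma. Targeted agents were tested alone and with KRAS pathway inhibitors. Doses started at or near clinical Cmax, or 10 microM, descending half-log.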

[1] = second compound 0.1 µM, first compound 0.0316 µM
[2] = second compound 0.1 µM, first compound 0.1 µM
[3] = second compound 0.316 µM, first compound 0.0316 µM
[4] = second compound 0.316 µM, first compound 0.1 µM
[5] = second compound 1 µM, first compound 0.0316 µM
[6] = second compound 1 µM, first compound 0.1 µM
[7] = second compound 3.16 µM, first compound 0.0316 µM
[8] = second compound 3.16 µM, first compound 0.1 µM
[9] = second compound 10 µM, first compound 0.0316 µM
[10] = second compound 10 µM, first compound 0.1 µM
[11] = second compound 0.1 µM, first compound 0.316 µM
[12] = second compound 0.1 µM, first compound 1 µM
[13] = second compound 0.1 µM, first compound 3.16 µM
[14] = second compound 0.1 µM, first compound 10 µM
[15] = second compound 0.316 µM, first compound 0.316 µM
[16] = second compound 0.316 µM, first compound 1 µM
[17] = second compound 0.316 µM, first compound 3.16 µM
[18] = second compound 0.316 µM, first compound 10 µM
[19] = second compound 1 µM, first compound 0.316 µM
[20] = second compound 1 µM, first compound 1 µM
[21] = second compound 1 µM, first compound 3.16 µM
[22] = second compound 1 µM, first compound 10 µM
[23] = second compound 3.16 µM, first compound 0.316 µM
[24] = second compound 3.16 µM, first compound 1 µM
[25] = second compound 3.16 µM, first compound 3.16 µM
[26] = second compound 3.16 µM, first compound 10 µM
[27] = second compound 10 µM, first compound 0.316 µM
[28] = second compound 10 µM, first compound 1 µM
[29] = second compound 10 µM, first compound 3.16 µM
[30] = second compound 10 µM, first compound 10 µM

Row | Compound | IC50 (second compound 0.1 µM) [nM] | IC50 (second compound 0.316 µM) [nM] | IC50 (second compound 1 µM) [nM] | IC50 (second compound 3.16 µM) [nM] | IC50 (second compound 10 µM) [nM] | viability, T/C [1] [%] | viability, T/C [2] [%] | viability, T/C [3] [%] | viability, T/C [4] [%] | viability, T/C [5] [%] | viability, T/C [6] [%] | viability, T/C [7] [%] | viability, T/C [8] [%] | viability, T/C [9] [%] | viability, T/C [10] [%] | viability, T/C [11] [%] | viability, T/C [12] [%] | viability, T/C [13] [%] | viability, T/C [14] [%] | viability, T/C [15] [%] | further results
1 | CN(C)C/C=C/C(=O)Nc1cc2c(Nc3ccc(F)c(Cl)c3)ncnc2cc1O[C@H]1CCOC1 + CC1OCC2(CCN(c3cnc(Sc4ccnc(N)c4Cl)c(N)n3)CC2)C1N | > 100 | > 100 | > 100 | > 100 | < 0.316 | 102 | 91.3 | 90.9 | 79.2 | 105 | 104 | 56.7 | 47.1 | 49.4 | 46.8 | – | – | – | – | – | viability, T/C (second compound 0.1 µM, first compound 0.000316 µM): 112%; viability, T/C (second compound 0.1 µM, first compound 0.001 µM): 109%; viability, T/C (second compound 0.1 µM, first compound 0.00316 µM): 103%; viability, T/C (second compound 0.1 µM, first compound 0.01 µM): 95.4%; viability, T/C (second compound 0.316 µM, first compound 0.000316 µM): 97.6%; viability, T/C (second compound 0.316 µM, first compound 0.001 µM): 93.9%; viability, T/C (second compound 0.316 µM, first compound 0.00316 µM): 104%; viability, T/C (second compound 0.316 µM, first compound 0.01 µM): 86.2%; viability, T/C (second compound 1 µM, first compound 0.000316 µM): 110%; viability, T/C (second compound 1 µM, first compound 0.001 µM): 106%; viability, T/C (second compound 1 µM, first compound 0.00316 µM): 107%; viability, T/C (second compound 1 µM, first compound 0.01 µM): 102%; viability, T/C (second compound 3.16 µM, first compound 0.000316 µM): 60.8%; viability, T/C (second compound 3.16 µM, first compound 0.001 µM): 46.2%; viability, T/C (second compound 3.16 µM, first compound 0.00316 µM): 53.3%; viability, T/C (second compound 3.16 µM, first compound 0.01 µM): 53.3%; outcome (second compound 10 µM, first compound 0.000316 µM): inactive; outcome (second compound 10 µM, first compound 0.001 µM): inactive; viability, T/C (second compound 10 µM, first compound 0.00316 µM): 43.6%; outcome (second compound 10 µM, first compound 0.01 µM): inactive
2 | COC(=O)c1ccc2c(C(=Nc3ccc(N(C)C(=O)CN4CCN(C)CC4)cc3)c3ccccc3)c(O)[nH]c2c1 + CC1OCC2(CCN(c3cnc(Sc4ccnc(N)c4Cl)c(N)n3)CC2)C1N | 179 | 105 | < 31.6 | < 31.6 | < 31.6 | 75.1 | 57.4 | 53.9 | 50.9 | 38.5 | 30 | 27 | 21.7 | 33.5 | 21.3 | 43.7 | 29.2 | 25.5 | 22.7 | 29.4 | viability, T/C [16]: 23.6%; viability, T/C [17]: 25.1%; viability, T/C [18]: 19.5%; viability, T/C [19]: 24.1%; viability, T/C [20]: 20.2%; viability, T/C [21]: 21.6%; viability, T/C [22]: 17.4%; viability, T/C [23]: 18.5%; viability, T/C [24]: 18.4%; viability, T/C [25]: 21.2%; viability, T/C [26]: 14.3%; viability, T/C [27]: 27.5%; viability, T/C [28]: 20.4%; viability, T/C [29]: 16.9%; viability, T/C [30]: 11.2%
3 | O=C(c1cc(Cc2n[nH]c(=O)c3ccccc23)ccc1F)N1CCN(C(=O)C2CC2)CC1 + CC1OCC2(CCN(c3cnc(Sc4ccnc(N)c4Cl)c(N)n3)CC2)C1N | 6460 | 5420 | 2280 | < 31.6 | < 31.6 | 90 | 84.3 | 84.2 | 83.7 | 101 | 70.1 | 44.2 | 43 | 37.1 | 40.5 | 80.8 | 85.4 | 66.8 | 39.8 | 78.6 | viability, T/C [16]: 69.5%; viability, T/C [17]: 57.6%; viability, T/C [18]: 41.1%; viability, T/C [19]: 63.7%; viability, T/C [20]: 65.5%; viability, T/C [21]: 51.2%; viability, T/C [22]: 34.5%; viability, T/C [23]: 40.3%; viability, T/C [24]: 44.1%; viability, T/C [25]: 37%; viability, T/C [26]: 26.1%; viability, T/C [27]: 36.8%; viability, T/C [28]: 43.2%; viability, T/C [29]: 32.7%; viability, T/C [30]: 28%
